Where a SMILES comes first, the peptide text is derived from it. [ ]: non-standard residue; d: D form. Hyp = O=C(O)[C@@H]1C[C@@H](O)CN1

Data on six molecules can be found in EP4640694A1, “SELF-ASSEMBLING PEPTIDE” (CYTOPORT (TIANJIN) BIOTECHNOLOGY CO., LTD, priority 2022, dated 2025).

For series [1], the system named is HepG2. Nature of the series: Cell condition after culture: 5-day viability of cells harvested from spheroids. It counts as cell-based. To be noted: cells harvested after 15 days in 0.1 wt.% peptide, 5-day viability test. The text has this: In this experiment, cell spheroids cultured in Experiment III using the polypeptides as shown in SEQ ID NO.: 13 (IIIIIGOGIIGPGGEGPGGE) of the present invention at a concentration of 0.1 wt.% initiated by high-glucose medium were collected by centrifugation and digested into single cells. The applicability of the material of the present invention in cell culture and biomedical field were further evaluated by comparing the cell viability of cells cultured with the material of the present invention with that of cells cultured without the material of the present invention.
The cell spheroids in Experiment III were collected by centrifugation after 15 days of culture, and the cell spheroids were digested into single cells using trypsin, then centrifuged and collected, and an appropriate amount of high-glucose medium was added to the collected cells to prepare cell suspensions at concentrations of 5×10^5 and 5×10^4 cells/mL. Cell suspensions at a concentration of 5 ×10^4 cells/mL were inoculated into 96-well plates so that each well contained 5,000 cells. A cell suspension at a concentration of 5×10^4 cells/mL was prepared according to the method in […] for preparing a cell suspension at a concentration of 5×10^5 cells/mL and it was inoculated into a 96-well plate so that each well contained 5,000 cells, which served as a control group for this experiment. […]

Series [2] has as its system HepG2 cells. Description: Cytocompatibility: relative viability (CCK-8) and cell counting over 5 days. The series is classed as cell-based. To be noted: 0.1%, 0.3%, 0.5%, 0.7% peptide, 5 days without medium change. The protocol: The method in Experiment I for preparing a cell suspension at a concentration of 5×10^5 cells/mL was used to prepare a cell suspension at a concentration of 5×10^4 cells/mL. The cells obtained at a concentration of 5×10^4 cells/mL were inoculated into 96-well plates with each well containing about 5,000 cells. In the experimental groups, the self-assembling peptide sol prepared according to the method in Example 2 was added to achieve the concentrations of polypeptide of 0.1%, 0.3%, 0.5%, and 0.7% in the final system. In the control group, an equal volume of PBS buffer was added to replace the peptide solution, respectively. […] During the experiment, 10% of the culture volume of CCK-8 kit was added every 24 hours, and after incubation for 30 minutes, the OD values of each group were measured using an enzyme labeler (parameter setting: primary wavelength of 450 nm, secondary wavelength of 630 nm), and all experiments were set up with 5 parallel groups, and the results of the experiments were shown in Figure 9A. Relative cell viability was calculated using the formula below: Relative cell viability (%) = (At−A0t)/(A1−A01) × 100%; [formula]
Wherein At is the average OD values measured after t days of culturing cells. A0t is the average value of blank background measured after t days. […]

Series [3] relates to mouse mesenchymal stem cells. Nature of the series: Cell storage at 4°C, Calcein-AM/PI live/dead staining by flow cytometry. It counts as cell-based. The note with it: for survival rate of mouse mesenchymal stem cells: 3D storage group, 0.05% peptide. As to the method:
Experimental Methods: Storage of mouse mesenchymal stem cells at 4°C was taken as an example in this experiment. The isolated mouse mesenchymal stem cells were mixed well by pipetting, […] aliquots were dispensed into freezing tubes, and mixed well by pipetting so that their cell concentration was about 1×10^6 cells/mL. In 3D group, mouse serum, 1% of double antibody of 50% MAP+50% SFEM storage solution and the polypeptide as shown in SEQ ID NO.:20 (FLIVIGOGIIGOGGEGPGGE) were added to a final concentration of 0.05%. In 2D group, mouse serum and 1% of double antibody of 50% MAP+50% SFEM storage solution were added, followed by storage in a 4°C refrigerator.
Cell viability test: • (1) The preserved cells were thoroughly pipetted and mixed well, 500 µL of each cell suspension was taken into a 1.5 mLEP tube, PBS was added for washing, followed by centrifugation at 1,500 rpm for 10 minutes; and • (2) The supernatant was discarded, and the cells were resuspended in 150 µL of 1% PBA solution. Then, 150 µL of live/dead cell staining working solution was added, mixed thoroughly, and incubated at 37°C in a light-protected manner for 15 minutes. The samples were analyzed using a flow cytometer.

Series [4] in a line: Rheological experiment, energy storage modulus (G') of peptide/serum mixture. It counts as physicochemical. The note with it: 0.5% peptide, 10 v/v% fetal bovine serum, neutral pH. The source says:
Experimental Methods: Preparation of Self-Assembling Peptide Material Samples: 2 wt% of the self-assembling peptide solution obtained in Example 2 was used, the sequences as shown in SEQ ID NO:1 (IIIIGSIIGPGGDGPGGV), SEQ ID NO:2 (IIIIGSIIGPGGEGPGGV), SEQ ID NO:3 (IIIIGSIIGOGGEGPGGV), SEQ ID NO:4 (IIIIGSIIGOGGGEGPGGV), SEQ ID NO:5 (IIIIGSIIGOGGEGPGGGV), SEQ ID NO:6 (IIIIGSIIGOGGEGPGV), SEQ ID NO:7 (IIIIGSIIGOGAEGPGGV), SEQ ID NO:8 (IIIIIGSIIOGGAEGPGGV), SEQ ID NO:9 (IIIIIGSIIGOGGVGPGGV), and SEQ ID NO: 10 (IIIIIIGSIIGOGAEGPGGVGPGGV).
Preparation of hydrogel samples formed by self-assembling peptide solutions in response to cell complete medium: 2 wt% of stock solution of self-assembling peptides obtained in Example 2 was diluted with phosphate buffer, added by fetal bovine serum to achieve a mixture solution with a final concentration of self-assembling peptide of 0.5%, a final concentration of serum of 10 v/v% with a neutral pH.
The energy storage modulus (G') of the mixture solution was measured on a 20 mm plate using MARS 60 rheometer. In order to determine the rate of formation of three-dimensional nanomatrix, the solution was placed on a plate for testing immediately after preparation. A gap of 500µm was used, mineral oil was added to the gap to prevent dehydration of the samples, and data collection commenced immediately. Dynamic Time-Scanning experiment (DTS) was performed to monitor changes in energy storage modulus (G') with time (1 Hz frequency, 1% strain) for 2000 min.

The subject of series [5] is erythrocytes. Nature of the series: Erythrocyte support experiment with different initiator components. The series is classed as cell-based. The protocol:
Experimental Methods: […] of erythrocyte stock solution (9.17×10^9/mL) was taken and diluted to 10 mL (9.17×10^7/mL) with 10 mM PBS, 4.5mL of erythrocyte dilution was added to a 10 ml of round-bottom tube and 4.5 mL of 4 mmol/L Calcein-AM solution was added, and the mixture was incubated at 37°C for 20 min and then centrifuged at 4°C, 1500r/min for 3 min. The supernatant was removed, and the pellet was resuspended in PBS, and repeated for 5 times to obtain about 1.5 mL of washed erythrocyte resuspension (1×10^8/mL) for latter use.
Experimental Results: PBS buffer was added to the erythrocyte resuspension solution to dilute the erythrocytes to 1×10^7/mL, and the mixture was allowed to stand for 4 hours, and the result was shown in Tube A in Figure 6.
The 1 wt% of self-assembling peptide solution (SEQ ID NO.:3) obtained in Example 2 was added ro make the final peptide concentration in the system of 0.05 wt% and the final concentration of erythrocytes of 1×10^7/mL, and the mixture was allowed to stand for 4 hours, and the result was shown in Tube B in Figure 6.
The mixed solution of polypeptide as shown in SEQ ID NO.:3 with lysine obtained in Example 3 was added to the erythrocytes resuspension solution, i.e., the polypeptide formed a three-dimensional network scaffold material in the presence of lysine, achieving a final peptide concentration in the system of 0.05 wt.%, mixing well and standing, and the result was shown in Tube C in Figure 6.
The mixted solution of self-assembling peptide as shown in SEQ ID NO.:3 with gentamicin obtained in Example 2 was added to the erythrocytes resuspension solution, i.e., the polypeptide formed the three-dimensional network scaffold material in the presence of gentamicin, achieving a final peptide concentration in the system of 0.05 wt.%, mixing well and standing, and the result was shown in Tube D in Figure 6.
The mixted solution of self-assembling peptide as shown in SEQ ID NO.:3 with polylysine obtained in Example 2 was added to the erythrocytes resuspension solution, i.e., the self-assembling peptide formed the three-dimensional network scaffold material in the presence of polylysine, achieving a final peptide concentration in the system of 0.05 wt.%, mixing well and standing, and the result was shown in Tube E in Figure 6.
The mixted solution of self-assembling peptide as shown in SEQ ID NO.:3 with fibrinogen obtained in Example 3 was added to the erythrocytes resuspension solution, i.e., the self-assembling peptide formed the three-dimensional network scaffold material in the presence of fibrinogen, achieving a final peptide concentration in the system of 0.05 wt.%, mixing well and standing, and the result was shown in Tube F in Figure 6.

The subject of series [6] is erythrocytes. Description: Erythrocyte support by different sequences under liquid conditions. It counts as cell-based. The note with it: 0.01 wt% peptide, 0.1 wt% fibronectin, 1×10^8 erythrocytes. As to the method: Experimental Methods: PBS buffer was used to separately prepare a concentration of 0.1 wt% stock solutions of self-assembling peptides as shown in SEQ ID NO.: 1 (IIIIIGSIIGPGGDGPGGV), SEQ ID NO.: 2 (IIIIIGSIIGPGGEGPGGV), SEQ ID NO.: 3 (IIIIIGSIIGOGGEGPGGV), and SEQ ID NO.: 7 (IIIIIGSIIGOGAEGPGGV). These solutions were autoclaved.
Using 2 mL clear glass vials, 4 materials were prepared at concentrations of 0.1 wt%, 0.05 wt%, and 0.01 wt% in 2 mL of self-assembling peptide solution (containing a final concentration of 0.1 wt% of fibronectin) and a blank group (without self-assembling peptide solution, but containing 0.1 wt% of fibronectin). A stock solution of at a concentration of 5×10^9 erythrocytes was added to each sample to a final concentration of 1×10^8, and the mixture was homogenized by pipetting. Photographs were taken every 4 hours to compare the effects of different materials on the support for erythrocytes.

In the case of `CC[C@H](C)[C@H](N)C(=O)N[C@H](C(=O)N[C@H](C(=O)N[C@H](C(=O)N[C@H](C(=O)NCC(=O)N1C[C@H](O)C[C@H]1C(=O)NCC(=O)N[C@H](C(=O)N[C@H](C(=O)NCC(=O)N1CCC[C@H]1C(=O)NCC(=O)NCC(=O)N[C@@H](CCC(=O)O)C(=O)NCC(=O)N1CCC[C@H]1C(=O)NCC(=O)NCC(=O)N[C@@H](CCC(=O)O)C(=O)O)[C@@H](C)CC)[C@@H](C)CC)[C@@H](C)CC)[C@@H](C)CC)[C@@H](C)CC)[C@@H](C)CC` [SEQ ID NO.: 13, IIIIIGOGIIGPGGEGPGGE] (H-IIIIIG[Hyp]GIIGPGGEGPGGE-OH), the “cell viability of harvested cells compared with control group” value in series [1] is “slightly better than that of the control group”. Also, in series [2], the “growth curve (cell counting) over 5 days” value was “grew with a relatively uniform and stable proliferation rate”; the “relative cell viability over 5 days (CCK-8)” value is “uniform and continuous steady increase in cell viability”.

FLIVIGOGIIGOGGGEGPGGE [SEQ ID NO.: 20]: the “survival rate of mouse mesenchymal stem cells” value is 79% in series [3] (day 3 of storage (2D group 67%)) and 71% in series [3] (day 5 of storage (2D group 43%)). Also, the “increase in survival versus 2D storage” value in series [3] (day 5 of storage) is around 30%.

Take IIIIGSIIGOGGGEGPGGV [SEQ ID NO.: 4]: the “hydrogel structure and elasticity in response to serum” value (“hydrogel structure and elasticity” below) in series [4] is given as “could still form a hydrogel structure but with weaker elasticity”.

IIIIIGSIIGOGGGEGPGGGV [SEQ ID NO.: 5]: in series [4], the “hydrogel structure and elasticity” value is “could still form a hydrogel structure but with weaker elasticity”.

IIIIIGSIIGOGGGEGPGGV [SEQ ID NO.: 3]: the erythrocyte distribution entry in series [5] (Tube B: 0.05 wt% peptide alone, no initiator, 1×10^7/mL erythrocytes, 4 hours) is “significant sedimentation”; in series [5] (Tube C: 0.05 wt.% peptide with lysine), “stereoscopic distribution”; in series [5] (Tube D: 0.05 wt.% peptide with gentamicin) it was “stereoscopic distribution”; in series [5] (Tube E: 0.05 wt.% peptide with polylysine), “stereoscopic distribution”; in series [5] (Tube F: 0.05 wt.% peptide with fibrinogen) it was “three-dimensional stereoscopic dispersion of the erythrocytes”. Besides, in series [6], the “time at which significant sedimentation of erythrocytes was shown” value was found to be 32 h.

Regarding IIIIIGSIIGOGGGEGPGV [SEQ ID NO.: 6], in series [4], the “hydrogel structure and elasticity” value was “could still form a hydrogel structure but with weaker elasticity”.
